Paper PMC8073907, “Peptide targeting of lysophosphatidylinositol-sensing GPR55 for osteoclastogenesis tuning” (Cell Communication and Signaling : CCS, 2021)

Experiments:
[1] = test system: osteoclasts derived from RAW264.7 cells; experiment: Osteoclast functional assay (bone resorption on bovine cortical bone slices); format: cell-based, murine; settings: 15 ng/mL RANKL, 7 days
Description: RAW264.7 cells were plated in differentiation medium at a density of 1250 cells/100 µL on 0.2-mm-thick bovine cortical bone slices (BoneSlices.com, Jelling, Denmark) in 96-well plates. Six hours later, 100 µL differentiation medium with RANKL (15 ng/mL, final concentration) was added, in the presence of a carrier or in combination with the GPR55 modulators. The media with the different compounds were replaced every 48 h, for a total of 7 days. At the end of this period, the cells were detached with a 10% bleach solution, and the resorption excavations were visualised by using Toluidine Blue staining (Sigma-Aldrich). Images of the resorption areas were obtained under the microscope (SW380T; Swift Optical Instruments, Inc., TX, USA) using the 10 × objective, and acquired with a digital camera (Swiftcam SC1003; Swift Optical Instruments, Inc.). The total eroded surface underwent blinded quantification using ImageJ (NIH), and was subdivided into pit and trench surfaces. Pits were characterised as round excavations with well-defined edges where the ratio between length and width was < 2.0. Trenches were defined as elongated excavations with well-defined edges whose length was at least twice the wide, and with clear signs of continued resorption. The prevalence of trenches was calculated as a proportion (%) of the trench surface relative to the total eroded surface.

[2] = test system: RAW264.7 cells; experiment: RANKL-induced transcription of osteoclastogenesis markers in RAW264.7 cells (real-time PCR); format: cell-based, murine
Summary of the method: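 RAW264.7 cells in α-MEM/10% FBS were treated with 15–30 ng/mL RANKL, refreshed every 48 h, with or without GPR55 ligands (e.g. 0.5 µM ML-191, 30 µM O1918, 1 µM LPI) or 150 nM peptide-P1. Marker mRNA was quantified by SYBR Green real-time PCR normalised to β2-microglobulin; Gpr55 was knocked down by siRNA where applied.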

**Q.** How did the “effect on relative trench contribution” value ([1]; 0.5 µM ML-191 or 1 µM 18:0 LPI) turn out when lysophosphatidylinositol [LPI] was run?
**A.** did not affect the relative contributions of the trenches

**Q.** What about the “increase of total resorbing activity induced by RANKL” value ([1]; 1 µM 18:0 LPI, versus RANKL + 0.004% faf-BSA) of the same substance?
**A.** 54%

**Q.** What about the “further stimulation of RANKL-induced Trap transcription” value ([2]; 1 µM soybean LPI, 24 h) of the same substance?
**A.** 0.2 -fold

**Q.** And the “increase in RANKL-induced Cathepsin-k mRNA” value ([2]; 1 µM soybean LPI, 24 h)?
**A.** 1.4 -fold

**Q.** What about the “further stimulation of RANKL-induced Ctr transcription” value ([2]; 1 µM soybean LPI, 48 h) of the same substance?
**A.** 2.4 -fold

**Q.** What about the “further stimulation of RANKL-induced Nfatc1 transcription” value ([2]; 1 µM soybean LPI, 48 h) of the same substance?
**A.** 1.1 -fold

**Q.** What about the “further stimulation of RANKL-induced Trap transcription” value ([2]; 1 µM soybean LPI, 48 h) of the same substance?
**A.** 0.7 -fold

**Q.** And the “increase in RANKL-induced Cathepsin-k mRNA” value ([2]; 1 µM soybean LPI, 48 h)?
**A.** 1.2 -fold

**Q.** What about the “further stimulation of RANKL-induced Ctr transcription” value ([2]; 1 µM soybean LPI, 72 h) of the same substance?
**A.** 1.6 -fold

**Q.** What about the “further stimulation of RANKL-induced Trap transcription” value ([2]; 1 µM soybean LPI, 72 h) of the same substance?
**A.** 0.7 -fold

**Q.** What about the “modulation of RANKL-induced Cathepsin-k transcription” value ([2]; 1 µM soybean LPI, 72 h) of the same substance?
**A.** no modulation

**Q.** What about the “effect on Mmp-9 transcription” value ([2]; 1 µM soybean LPI, any of the times analysed) of the same substance?
**A.** no effects on Mmp-9 transcription

**Q.** And the “effect on osteoclastogenesis marker transcription after washout” value ([2]; LPI washout after the initial 24 h, data not shown)?
**A.** did not produce any significant effects

**Q.** And the “RANKL-induced transcription of Ctr, si-NT versus si-GPR55 cells” value ([2]; RANKL 15 ng/mL, 72 h, 1 µM soybean LPI or 1 µM ML-184)?
**A.** similarly increased RANKL-induced transcription of Ctr only in precursor cells treated with non-targeting siRNAs, and not in those silenced for GPR55
